The text below walks through data of PubChem BioAssay (NCI).

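Cells were grown in 96-well plates and exposed to each compound for 48 hours at five concentrations; endpoints were interpolated linearly between bracketing concentrations, or set to the highest concentration if not reached. At the GI50, growth is halved. TGI: total growth inhibition.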

Some test systems named below: T-47D breast; DU-145 prostate; SK-MEL-5 melanoma; OVCAR-5 ovarian; SNB-19 CNS; MALME-3M melanoma; OVCAR-3 ovarian; UACC-62 melanoma; K-562 leukemia; SR leukemia.
Holding throughout (assay): growth of human tumour cells (NCI), 48 h

For `CCCCOC1OC(COC(=O)C(C)C)C(OC(=O)C(C)C)C(O)C1OC1OC(C)C(OC(=O)CCC)C(OC(=O)C(C)C)C1O` (stereo not drawn), the GI50 in the experiment with T-47D breast is 15 µM; with DU-145 prostate it was 16.3 µM; in the experiment on SK-MEL-5 melanoma, 13.6 µM; in the experiment on OVCAR-5 ovarian it was 12.7 µM; in the experiment with SNB-19 CNS it was 16.5 µM; with MALME-3M melanoma, 19.5 µM. The GI50 in the experiment on OVCAR-3 ovarian was 11.9 µM; in the experiment with UACC-62 melanoma, 12.3 µM; with K-562 leukemia it was 3090 nM. Moreover, the TGI in the experiment on T-47D breast turned out to be 35.3 µM; in the experiment on DU-145 prostate, 29.8 µM; in the experiment with SK-MEL-5 melanoma, 26.5 µM; in the experiment on OVCAR-5 ovarian it was 25.2 µM; with SNB-19 CNS, 31.3 µM; with MALME-3M melanoma, 35.2 µM. Moreover, the TGI came out at 24.2 µM with OVCAR-3 ovarian, 24.8 µM in the experiment on UACC-62 melanoma and 14.3 µM with K-562 leukemia.
Turning to `COc1cc2oc3c(c(=O)c2c(O)c1/C=C/C(C)C)C(C=C(C)C)Oc1cc(O)ccc1-3` (stereo not drawn), the TGI in the experiment on T-47D breast was 31 µM; in the experiment on DU-145 prostate it was 30.2 µM; with SK-MEL-5 melanoma, 39.9 µM; with OVCAR-5 ovarian, 31.1 µM; with SNB-19 CNS it was 30.6 µM; in the experiment with MALME-3M melanoma it was 38.9 µM. Besides, the TGI came out at 28.4 µM with OVCAR-3 ovarian, 32.3 µM with UACC-62 melanoma and 24.2 µM in the experiment with K-562 leukemia.
Consider `CC(=O)/C=C/c1ccc(OCc2ccc(Cl)cc2)cc1`, for which the GI50 in the experiment with T-47D breast was 182 µM; with DU-145 prostate it was 636 µM; in the experiment with SK-MEL-5 melanoma, 140 µM; in the experiment with SR leukemia it was 564000 nM; in the experiment on OVCAR-5 ovarian it was > 1000 µM; with SNB-19 CNS, > 1000 µM. For the same compound, the GI50 in the experiment with MALME-3M melanoma is 330 µM; with OVCAR-3 ovarian, > 1000 µM; in the experiment on UACC-62 melanoma it was 218 µM. Moreover, the TGI in the experiment with T-47D breast is > 1000 µM; in the experiment on DU-145 prostate, > 1000 µM; in the experiment on SK-MEL-5 melanoma, 395 µM; with SR leukemia it was > 1000 µM; in the experiment with OVCAR-5 ovarian, > 1000 µM; in the experiment on SNB-19 CNS, > 1000 µM. Moreover, the TGI with MALME-3M melanoma, with OVCAR-3 ovarian and with UACC-62 melanoma was > 1000 µM each time.
Take `O=[N+]([O-])c1cc2no[n+]([O-])c2cc1N1CCCCC1`: the TGI amounted to 5.53 µM with T-47D breast; 6.18 µM in the experiment on DU-145 prostate; 41.7 µM in the experiment with SK-MEL-5 melanoma; 12.2 µM with SR leukemia; 24.8 µM with OVCAR-5 ovarian; 35.5 µM with SNB-19 CNS. Besides, the TGI is 33.8 µM with UACC-62 melanoma and 7.98 µM in the experiment on K-562 leukemia.
Regarding `CCN1C(=NCCO)NS(=O)(=O)c2ccccc21`, the TGI in the experiment on T-47D breast, in the experiment with DU-145 prostate, in the experiment on SK-MEL-5 melanoma, with SR leukemia, with OVCAR-5 ovarian and in the experiment on SNB-19 CNS was > 100 µM throughout. The TGI with OVCAR-3 ovarian, in the experiment with UACC-62 melanoma and in the experiment with K-562 leukemia was > 100 µM each time.
Take `O=Cc1ccc(-c2ccc(-c3nc4ccccc4s3)cc2)s1`: the GI50 with T-47D breast was > 100 µM; with DU-145 prostate it was 73 µM; with SK-MEL-5 melanoma, 27.1 µM; in the experiment on OVCAR-5 ovarian, > 100 µM; in the experiment on SNB-19 CNS, > 100 µM; in the experiment with MALME-3M melanoma it was 52.4 µM. Besides, the figures for the GI50 in the experiment on OVCAR-3 ovarian, in the experiment on UACC-62 melanoma and in the experiment with K-562 leukemia were 27.2 µM, 22.2 µM and 37100 nM, respectively. Also, the TGI with T-47D breast, in the experiment with DU-145 prostate, in the experiment on SK-MEL-5 melanoma, with OVCAR-5 ovarian, in the experiment with SNB-19 CNS and with MALME-3M melanoma was > 100 µM each time. The TGI in the experiment with OVCAR-3 ovarian was 98.3 µM; in the experiment on UACC-62 melanoma, > 100 µM; with K-562 leukemia, > 100 µM.
`Cl.Fc1c[c-]c(-c2ccccn2)c(F)c1.[Pt].c1ccc([PH+](C[PH+](c2ccccc2)c2ccccc2)c2ccccc2)cc1`: the GI50 in the experiment with T-47D breast is 0.135 µM; with DU-145 prostate, 0.355 µM; in the experiment with OVCAR-5 ovarian it was 0.324 µM; in the experiment on SNB-19 CNS, 0.343 µM; with OVCAR-3 ovarian, 0.184 µM; in the experiment with UACC-62 melanoma, 0.199 µM. Also, the GI50 in the experiment on K-562 leukemia is 48.3 nM. Moreover, the TGI in the experiment with T-47D breast was found to be 1.02 µM; with DU-145 prostate it was 1.33 µM; with OVCAR-5 ovarian, 1.18 µM; with SNB-19 CNS, 1.32 µM; in the experiment with OVCAR-3 ovarian, 0.442 µM; in the experiment on UACC-62 melanoma, 0.511 µM. Moreover, in the experiment with K-562 leukemia, the TGI stood at 0.573 µM.
Consider `COC(=O)C(C(=O)OC)C(Br)C(Br)C(Br)c1ccccc1` (stereo not drawn), for which the GI50 is 2.03 µM in the experiment with T-47D breast; 10.6 µM with DU-145 prostate; 2470 nM in the experiment on SR leukemia; 19.9 µM in the experiment with OVCAR-5 ovarian; 2.34 µM in the experiment with MALME-3M melanoma; 2.98 µM in the experiment on OVCAR-3 ovarian. Moreover, in the experiment with UACC-62 melanoma, the GI50 was 9.46 µM. The TGI stood at 4.92 µM in the experiment with T-47D breast; 23 µM with DU-145 prostate; 6.39 µM in the experiment on SR leukemia; 37.5 µM with OVCAR-5 ovarian; 4.92 µM in the experiment with MALME-3M melanoma; 7.63 µM in the experiment on OVCAR-3 ovarian. Further, the TGI with UACC-62 melanoma was determined as 21.5 µM.
With `CC(C)(C)N/N=C(\C(=O)NC1=C(Cl)C(=O)c2ccccc2C1=O)C1C=CCS1(=O)=O` (stereo not drawn), the TGI is 37.8 µM with T-47D breast; 23.2 µM with DU-145 prostate; 35.5 µM in the experiment on OVCAR-5 ovarian; > 100 µM in the experiment with SNB-19 CNS; 6.44 µM with MALME-3M melanoma; 9.38 µM with OVCAR-3 ovarian. In addition, the TGI is 9.17 µM with UACC-62 melanoma and > 100 µM with K-562 leukemia.
`Cc1cccc2c3c(sc12)C(c1ccc(F)cc1)C(C#N)=C(N)O3` (stereo not drawn): the GI50 is 0.151 µM with DU-145 prostate; 0.111 µM in the experiment with SK-MEL-5 melanoma; 46.2 nM in the experiment on SR leukemia; 0.325 µM with OVCAR-5 ovarian; 0.081 µM in the experiment with SNB-19 CNS; 0.08 µM in the experiment with MALME-3M melanoma. For the same compound, the values for the GI50 with OVCAR-3 ovarian, with UACC-62 melanoma and with K-562 leukemia were 0.0401 µM, 0.0433 µM and 35.7 nM, respectively. Besides, the TGI in the experiment on DU-145 prostate stood at 13 µM; in the experiment with SK-MEL-5 melanoma it was 1.38 µM; in the experiment with SR leukemia, 20.2 µM; in the experiment with OVCAR-5 ovarian, 12.8 µM; with SNB-19 CNS, 12.2 µM; with MALME-3M melanoma, 19 µM. Also, the TGI with OVCAR-3 ovarian is 1.85 µM; with UACC-62 melanoma, 11.7 µM; in the experiment with K-562 leukemia it was > 100 µM.
Take `C/C(=N\NC(=S)N1CCCCCC1)c1cccc2cccnc12`: the TGI in the experiment with T-47D breast is 70.9 µM; with DU-145 prostate, > 100 µM; with SR leukemia it was 14.5 µM; in the experiment with OVCAR-5 ovarian it was > 100 µM; with SNB-19 CNS, > 44.2 µM; with MALME-3M melanoma it was > 61 µM. Besides, the TGI was 0.567 µM in the experiment on OVCAR-3 ovarian, 6.53 µM in the experiment with UACC-62 melanoma and > 100 µM in the experiment on K-562 leukemia.
